Results on six compounds are retold here after patent publication US20130090471A1, “METHOD FOR DETECTING COMPOUNDS THAT MODULATE THE CHOLESTEROL METABOLISM” (priority 2010, published 2013).

Each structure is given as a SMILES string. Positions of bridges follow the written chain, without caps; N, C: chain ends. Non-standard residues stand in square brackets, D forms with d. Residues, ends and D or L forms follow the SMILES beside them. *: point of attachment. Asp(3S-OH) = N[C@H](C(=O)O)[C@H](O)C(=O)O; Thr(4-Cl) = N[C@H](C(=O)O)[C@H](O)CCl; X1 = CCCCCCCCC[C@@H](O)CC(=O)*; dDab = NCC[C@@H](N)C(=O)O; Dab = NCC[C@H](N)C(=O)O; Dhb = C/C=C(\N)C(=O)O

Format in all cases: cell-based, Saccharomyces cerevisae
Data set [1] concerns yIM126-pIM580-CYP27A1 yeast. The data set is described as follows: Test for restoration of growth on a YPG agar containing syringomycin E inoculated with a cholesterol-producing strain. Particulars: syringomycin E 250 ng/ml, 48 h to 72 h at 30° C. The procedure: The yIM126 yeasts containing the expression plasmids for DHCR24 with or without P450 are cultured in YNB medium, 2% glucose, adenine at 100 μg/ml for 48 h at 30° C. and then in Käppeli medium for 24 h at 30° C. as described above.
(§1) The yeast suspensions are diluted to an optical density at 600 nm of 0.005 unit ( 1/200) in YNB medium in order to inoculate a YPG agar containing syringomycin E at a dose that is toxic for the strain, i.e. 160 ng/ml for yIM126 containing the pIM582 plasmid, or 250 ng/ml for the yIM126 strain containing the pIM580 plasmid.
The inoculation of the agar medium is carried out by flooding its surface and immediately suctioning off the excess liquid. Products of interest are deposited on the agar surface thus inoculated, and then dried. […] Similarly, this method makes it possible to identify activators of enzymes, such as cytochromes P450, for instance CYP27A1, which catabolize cholesterol.
FIG. 7: Test for restoration of growth on a YPG agar containing syringomycin E inoculated with a cholesterol-producing strain.
The surface of a YPG agar medium containing syringomycin E at 250 ng/ml is inoculated with a covering of yIM126-pIM580-CYP27A1 yeast suspension. […]

For data set [2], the system named is yIM126 strain containing the pIM580 plasmid (with CYP27A1). The data set is described as follows: Growth of yeasts on YPG agar containing syringomycin E. The procedure: (§2) This culture medium is a rich medium of YPG agar type (YPG complete medium: yeast extract (Difco) 10 g/L, bactopeptone (Difco) 20 g/L, glucose (Merck) 20 g/L) supplemented with syringomycin E toxin from Pseudomonas syringae B-301D (Sigma #S6946) from 150 to 250 ng/ml.
(§3) The yIM126 yeast strains containing an expression vector for DHCR24 and cytochrome P450 such as pIM580, described previously, are cultured for 48 h with shaking at 30° C. in a YNB medium (yeast nitrogen base w/o amino acids (Difco) 6.7 g/L, glucose (Merck) 20 g/L) supplemented with 2% glucose and adenine at 100 μg/ml.
(§4) The culture reaches an optical density at 600 nm of about 7 units. The cell pellet is harvested by centrifugation and transferred into an identical volume of Käppeli medium containing […], 2% glucose and 100 μg/ml of adenine, and shaken at 30° C. for 24 h, reaching an optical density at 600 nm of about 40 units.
(§5) The cultures are diluted to 1 unit of optical density at 600 nm and then to 1/50 and then 25-fold dilutions in order to perform a drop test on YPG agars containing syringomycin E according to the methods known to those skilled in the art.
(§6) The toxicity of this YPG medium containing syringomycin E depends on the amount of cholesterol available in the yeast, observed by GC/FID or GC/MS.
as §1
(§7) FIG. 6: Test for growth of various strains producing and/or catabolizing cholesterol on a YPG agar containing syringomycin E (SRG): Yeast culture dilutions deposited on a YPG agar without syringomycin E(6A) or with syringomycin E at 170 ng/ml (6B); Dilution OD at 600 nm from top to bottom: 0.02/0.0008/[…].

The subject of data set [3] is yIM126 containing the pIM582 plasmid (without P450). Described as above. The procedure:
as §2, §3, §4, §5, §6, §1, §7

Setting [4] is: 2 μl of product at 0.1 mg/ml deposited.
[5] abbreviates: 2 μl of product at 1 mM deposited.
[6] abbreviates: YPG agar, inoculated at OD 600 nm 0.005.
Setting [7] is: syringomycin E at 170 ng/ml, 48 h to 72 h at 30° C.

Consider `C[C@@H](CO)CCC[C@@H](C)[C@H]1CC[C@H]2[C@@H]3CC=C4C[C@@H](O)CC[C@]4(C)[C@H]3CC[C@]12C` [27OH-cholesterol], for which the “area of protection with respect to the toxicity of the syringomycin E contained in the agar” value in data set [1] (setting [4]) is “induces an area of protection”. As for `Clc1ccccc1CNCC1CCC(CNCc2ccccc2Cl)CC1` (stereo not drawn) [AY9944], the “restoration of growth (yeast growth halos around the deposits) on medium which is initially toxic” value (“restoration of growth” for short) in data set [1] (setting [5]) is “verified”. `CCN(C/C=C\c1ccc(C2CCCCC2)c(Cl)c1)C1CCCCC1` [SR31747]: the “restoration of growth” value in data set [1] (setting [5]) is listed as “verified”. On to `CCC(C)(C)c1ccc(CC(C)CN2C[C@@H](C)O[C@@H](C)C2)cc1` (stereo partly drawn) [amorolfine], for which the “restoration of growth” value in data set [1] (setting [4]) is listed as “verified”. As for `CC(C)CCC[C@@H](C)[C@H]1CC[C@H]2[C@@H]3CC=C4C[C@@H](O)CC[C@]4(C)[C@H]3CC[C@]12C` [cholesterol], in data set [1] (setting [4]), the “area of protection with respect to the toxicity of the syringomycin E contained in the agar” value is listed as “induces an area of protection”. As to `C/C=C1\NC(=O)[C@H](Cc2ccccc2)NC(=O)[C@H](CCCN=C(N)N)NC(=O)[C@@H](CCN)NC(=O)[C@H](CCN)NC(=O)[C@@H](CO)NC(=O)[C@@H](NC(=O)C[C@H](O)CCCCCCCCC)COC(=O)[C@H]([C@H](O)CCl)NC(=O)[C@H]([C@H](O)C(=O)O)NC1=O` [syringomycin E] (X1-S[dS][Dab][dDab]RF[Dhb][Asp(3S-OH)][Thr(4-Cl)]; ester 1-C), the “dose that is toxic for the strain” value in data set [2] (setting [6]) was found to be 250 ng/mL; in data set [3] (setting [6]), 160 ng/mL. Further, the “growth of the yeasts in drop test” value in data set [2] (setting [7]) was “capable of growing”; in data set [3] (setting [7]) it was “not capable of growing”.
